Assay results published in PMC11443485, “Euphane and Tirucallane Triterpenes with Trypanocidal Activity from Euphorbia desmondii” (Journal of Natural Products, 2024).
Where two headings read alike, the source gives them in different places.

Experiments:
RAW264.7 macrophages = test: Cytotoxicity in RAW264.7 macrophages (mammalian host cells); format: cell-based; details: host cell cytotoxicity, read-out: RAW 264.7 IC50
Method: [The procedure below names another organism; the source lists this organism under the same test.] To biologically characterize the isolated triterpenoids for their trypanocidal activities, their cytotoxicities in RAW264.7 macrophages (mammalian host cells) and T. cruzi epimastigotes were analyzed.
To assess the selectivities of the isolated compounds, their trypanocidal activities against the epimastigotes were assessed by the Cell Proliferation Kit II (XTT) assay, as previously described.[11] Briefly, 1.5 × 10^5 epimastigotes were seeded per well in 96-well plates. […] In all the experiments, benznidazole was used as the positive control. Following the incubation period, the plates were examined under a microscope for sterility and growth of controls. To the plates, 50 μL of XTT and PMS (Phenazine methosulfate, Sigma-Aldrich, MO, USA) solution (XTT and PMS at 0.5 and 0.025 mg/mL, respectively) was added, and the plates were then incubated at 28 °C for 2.5 h. The parasites were fixed by the addition of 50 μL of MeOH for 15 min before the absorbance was measured at 490 nm on a Tecan plate reader. Results were expressed as percentage cell viability relative to vehicle control or IC50 values calculated by GraphPad Prism version 8.0. All assessments were performed in triplicate in at least two independent experiments.

[1] = tested on: T. cruzi epimastigotes (Y strain); test: Trypanocidal activity against T. cruzi epimastigotes, Cell Proliferation Kit II (XTT) assay; format: cell-based, Trypanosoma cruzi; details: for Selectivity Index: T. cruzi epimastigotes over the host cell (RAW264.7 macrophages); for IC50: epimastigotes, Y strain, 72 h at 28 °C, XTT, read-out: T. cruzi epimastigote WT-Y IC50; for Increase of the proliferation of the epimastigotes: at the lower micromolar concentrations, trypanocidal at higher concentrations; for Effect on T. cruzi epimastigote proliferation (Figure S130): mean ± SD of three independent experiments each in triplicates
Method: Epimastigotes of T. cruzi [Y strain (ATCC 50832)] were maintained in weekly passages in a liver infusion tryptose (LIT) medium supplemented with 10% heat-inactivated fetal bovine serum (hiFBS) at 28 °C, as described previously.[33] The epimastigote cultures in the logarithmic-growth phase (1–5 × 10^7 parasites/mL) were used for the experiments unless stated otherwise. The green fluorescent protein (GFP)-overexpressing epimastigotes were generated by transfection using pTREX-n-eGFP, a gift from Rick Tarleton (Addgene plasmid # 62544; http://n2t.net/addgene:62544;RRID:Addgene_62544), as described previously. The GFP-expressing epimastigotes were cultured in LIT medium supplemented with 10% hiFBS and 500 μg/mL G418.
To assess the selectivities of the isolated compounds, their trypanocidal activities against the epimastigotes were assessed by the Cell Proliferation Kit II (XTT) assay, as previously described.[11] Briefly, 1.5 × 10^5 epimastigotes were seeded per well in 96-well plates. The compounds were added at a single concentration, 10 μM (for the initial screening experiments) or six concentrations ranging from 10–0.3 μM for 72 h at 28 °C. In all the experiments, benznidazole was used as the positive control. Following the incubation period, the plates were examined under a microscope for sterility and growth of controls. To the plates, 50 μL of XTT and PMS (Phenazine methosulfate, Sigma-Aldrich, MO, USA) solution (XTT and PMS at 0.5 and 0.025 mg/mL, respectively) was added, and the plates were then incubated at 28 °C for 2.5 h. The parasites were fixed by the addition of 50 μL of MeOH for 15 min before the absorbance was measured at 490 nm on a Tecan plate reader. Results were expressed as percentage cell viability relative to vehicle control or IC50 values calculated by GraphPad Prism version 8.0. All assessments were performed in triplicate in at least two independent experiments.

[2] = tested on: T. cruzi amastigotes in infected RAW264.7 cells; test: Amastigote replication in host cells: FACS quantitation of GFP parasites released from infected RAW264.7 cells; format: cell-based, Trypanosoma cruzi; details: GFPY parasite release from infected RAW264.7 cells, FACS after 6 days, mean ± SD of three independent experiments
Method: Figure 3 Inhibition activity of 1 against amastigote replication in the host cells. […] (A) Representative brightfield microscopic image of CCL39 fibroblasts infected with Trypanosoma cruzi with amastigotes (arrow). […] (C) Inhibition curves of compound 1 and the positive control, benznidazole, of the GFPY parasite release from the infected RAW264.7 cells were measured by fluorescence-activated cell sorting (FACS) after 6 days.
Fluorescence-activated cell sorting (FACS)-based quantitation of released parasites from infected RAW264.7 cells: The host cells were seeded in 24-well plates at densities of 40,000 and 10,000 cells/mL. The cells were allowed to adhere for 24 h, after which they were infected with trypomastigotes that were harvested by the swim-out procedure described above at a multiplicity of 10. On the next day, the noninternalized trypomastigotes were washed off, and fresh RPMI with 2% fetal bovine serum was added to the wells along with the test substance. In all of the experiments, the screening was performed in triplicate, including tests with DMSO and benznidazole controls. The released parasites were fixed using 4% paraformaldehyde in phosphate-buffered saline for 1 h, after which the samples were analyzed by FACS (BD Biosciences), as described previously.[11]

[3] = Trypanosoma cruzi, RAW264.7, 144 h

CC(C)=CCC[C@@H](C)[C@@H]1CC[C@]2(C)C3=C(C(=O)C[C@@]12C)[C@@]1(C)CC[C@H](O)C(C)(C)[C@@H]1C[C@H]3O [Compound 8, eupha-8,24-dien-3β,7α-diol-11-one]
IC50 (RAW264.7 macrophages; Mus musculus): 28.4 µM | Selectivity Index [1]: 5.8 | IC50 ([1]; Trypanosoma cruzi): 4.9 µM | Increase of the proliferation of the epimastigotes [1]: 15–30% | Effect on T. cruzi epimastigote proliferation (Figure S130) [1]: significant increase

O=C(Cn1ccnc1[N+](=O)[O-])NCc1ccccc1 [benznidazole, reference compound]
IC50 [2]: 3.2 ± 0.5 µM | IC50 [2, 3]: 3.6 ± 0.4 µM

CC(C)C(=O)CC[C@@H](C)[C@@H]1CC[C@]2(C)C3=C(CC[C@@]12C)[C@@]1(C)CC[C@H](O)C(C)(C)[C@@H]1CC3=O [Compound 2, eupha-8-ene-3β-ol-7,24-dione]
IC50 (RAW264.7 macrophages; Mus musculus): 31.5 µM | Selectivity Index [1]: 6.3 | IC50 ([1]; Trypanosoma cruzi): 5 µM | Effect on T. cruzi epimastigote proliferation (Figure S130) [1]: significant increase

3β-hydroxy-27-nor-tirucalla-8-en-7,11,25-trione [Compound 12]
IC50 (RAW264.7 macrophages): 24.4 µM | Selectivity Index [1]: 6.6 | Increase of the proliferation of the epimastigotes [1]: 15–30% | IC50 [1]: 3.7 µM | Effect on T. cruzi epimastigote proliferation (Figure S130) [1]: significant increase

C[C@H](C/C=C/C(C)(C)OO)[C@@H]1CC[C@]2(C)C3=C(CC[C@@]12C)[C@@]1(C)CC[C@H](O)C(C)(C)[C@@H]1CC3=O [Compound 1, (23E)-25-hydroperoxyeupha-8,23-diene-3β-ol-7-one]
IC50 (RAW264.7 macrophages; Mus musculus): 38.1 µM | Selectivity Index [1]: 8.5 | IC50 ([1]; Trypanosoma cruzi): 4.5 µM | IC50 ([2]; listed as desmondiin A): 2.4 ± 0.3 µM | IC50 [2, 3]: 2.5 ± 0.3 µM

C[C@@H](C/C=C/C(C)(C)OO)[C@@H]1CC[C@]2(C)C3=C(C(OO)C[C@@]12C)[C@@]1(C)CC[C@H](O)C(C)(C)[C@@H]1CC3=O (stereo partly drawn) [Compound 5, (23E)-11,25-dihydroperoxytirucalla-8,23-dien-3β-ol-7-one]
IC50 (RAW264.7 macrophages; Mus musculus): 18.4 µM | Selectivity Index [1]: 5.4 | IC50 ([1]; Trypanosoma cruzi): 3.4 µM | Increase of the proliferation of the epimastigotes [1]: 15–30% | Effect on T. cruzi epimastigote proliferation (Figure S130) [1]: significant increase

CC(=O)CCC[C@H](C)[C@@H]1CC[C@]2(C)C3=C(CC[C@@]12C)[C@@]1(C)CC[C@H](O)C(C)(C)[C@@H]1CC3=O [Compound 3, Desmondiin D]
IC50 (RAW264.7 macrophages; Mus musculus): 31 µM | Selectivity Index [1]: 7.8 | IC50 ([1]; Trypanosoma cruzi): 4 µM

C/C(C=O)=C\CC[C@H](C)[C@@H]1CC[C@]2(C)C3=C([C@@H](O)C[C@@]12C)[C@@]1(C)CC[C@H](O)C(C)(C)[C@@H]1CC3=O [Compound 7, Desmondiin H]
IC50 (RAW264.7 macrophages; Mus musculus): 23.5 µM | Selectivity Index [1]: 6.4 | IC50 ([1]; Trypanosoma cruzi): 3.7 µM
